{
  "source": "patent US5952183A",
  "about": "“Synthesis of estrogen-purine base and estrogen-mercapturate adducts and development of fluorescent probes and monoclonal antibodies to assay those adducts” (priority 1998, dated 1999)",
  "key": {"[1]": {"experiment": "Stability of estrogen quinones at various pH (remaining quinone by HPLC)", "assay_type": "physicochemical", "experimental": "Because acidic conditions were used to generate these estrogen-nucleoside adducts, an investigation was conducted of the effects of pH on the stability of both the 3,4- and 2,3-quinones.\n^a pH was adjusted with the following buffers: pH 9, trisHCl; pH 7,\ndistilled H2 O; […]; pH 3, citric acid.\n^b t1/2 is defined as the time when 1/2 of the original quinone\nconcentration was observed by HPLC\n^c Quinones (0.02 mmol) were synthesized in 2 mL of CH3 CN and\nplaced in 10 mL of aqueous buffer"}, "[2]": {"experiment": "1H-NMR monitoring of E1-2,3-Q to quinone methide tautomerization in CH3CN-d3", "assay_type": "physicochemical"}, "DNA": {"system": "DNA", "experiment": "Formation of DNA adducts by quinones or horseradish peroxidase-activated catechol estrogens in vitro (32P-postlabeling for stable adducts)", "assay_type": "biochemical", "text": "First, the o-quinones of estrogens are capable of binding directly to the nucleophilic groups of DNA bases. Second, the 3,4-quinones of estrogens produce depurinating adducts that are lost from DNA, generating apurinic sites in the DNA; and third, the 2,3-quinones form stable adducts that remain bound to DNA if not repaired. In fact, reaction of 2,3- and 3,4-quinones with DNA or CE activated by horseradish peroxidase in the presence of DNA affords differential formation of stable adducts, as evidenced by 32P-postlabeling analysis. The 2,3-quinones form 10-50 times higher levels of stable adducts than the 3,4-quinones."}, "DNA, rat mammary gland": {"system": "DNA, rat mammary gland", "experiment": "Formation of depurinating DNA adducts in the rat mammary gland", "assay_type": "in vivo"}, "hamster kidney": {"system": "hamster kidney", "settings": "Syrian golden hamsters; cited from earlier work"}, "[3]": {"settings": "published isomerization study of model o-quinone; cited from earlier work"}},
  "note": "Read-outs that look alike come from different tables or passages of the source.",
  "data": [
    {"smiles": "C[C@]12CC[C@@H]3C4=CC(=O)C(=O)C=C4CC[C@H]3[C@@H]1CCC2=O", "note": "[E1-2,3-Q]", "values": [
      {"measurement": "effect of lowering pH on stability", "setting": "[1]", "result": "did not"},
      {"measurement": "decomposition under mildly basic conditions", "setting": "[1]", "result": "decomposed rapidly"},
      {"measurement": "half-life", "setting": "[1]; pH 3, citric acid, read-out: t1/2 (time when 1/2 of the original quinone concentration was observed by HPLC)", "result": 1.17, "unit": "h"},
      {"measurement": "half-life", "setting": "[1]; pH 5, trizma, read-out: t1/2 (time when 1/2 of the original quinone concentration was observed by HPLC)", "result": 1.83, "unit": "h"},
      {"measurement": "half-life", "setting": "[1]; pH 7, distilled H2O, read-out: t1/2 (time when 1/2 of the original quinone concentration was observed by HPLC)", "result": 1.83, "unit": "h"},
      {"measurement": "half-life", "setting": "[1]; pH 9, trisHCl, read-out: t1/2 (time when 1/2 of the original quinone concentration was observed by HPLC)", "result": "< 0.0833", "unit": "h"},
      {"measurement": "change of 1H-NMR spectrum over time", "setting": "[2]; CH3CN-d3, two days", "result": "unchanged for two days"},
      {"measurement": "change of o-quinone 1H-NMR spectrum over time with acid", "setting": "[2]; CH3CN-d3 with CF3CO2H-d, two weeks", "result": "no change in the o-quinone spectrum was observed"}
    ]},
    {"smiles": "C[C@]12CC[C@@H]3C4=C(CC[C@H]3[C@@H]1CCC2=O)C(=O)C(=O)C=C4", "note": "[E1-3,4-Q]", "values": [
      {"measurement": "effect of lowering pH on stability", "setting": "[1]", "result": "marked increase in stability"},
      {"measurement": "half-life", "setting": "[1]; citric acid, pH 3", "result": 6.5, "unit": "h"},
      {"measurement": "half-life", "setting": "[1]; distilled h2o, pH 7", "result": 1.83, "unit": "h"},
      {"measurement": "decomposition under mildly basic conditions", "setting": "[1]", "result": "decomposed rapidly"},
      {"measurement": "half-life", "setting": "[1]; trishcl, pH 9", "result": "< 0.0833", "unit": "h"},
      {"measurement": "half-life", "setting": "[1]; trizma, pH 5", "result": 3.17, "unit": "h"}
    ]},
    {"smiles": "C[C@]12CC[C@@H]3c4ccc(O)c(O)c4CC[C@H]3[C@@H]1CCC2=O", "note": "[4-OHE1, 4-hydroxyestrone]", "values": [
      {"measurement": "formation of depurinating E1(E2)-1-(α,β)-N7Gua adducts", "setting": "DNA", "result": "almost exclusively"},
      {"measurement": "formation of depurinating E1(E2)-1-(α,β)-N7Gua adducts", "setting": "DNA, rat mammary gland; rat, in vivo", "result": "almost exclusively"}
    ]},
    {"smiles": "C[C@]12CC[C@@H]3c4ccc(O)cc4CC[C@H]3[C@@H]1CCC2=O", "note": "[E1, estrone]", "values": [
      {"measurement": "induction of renal tumors / carcinogenicity", "setting": "hamster kidney", "result": "Malignant renal tumors are induced"}
    ]},
    {"smiles": "O=C1C=C2CCCCC2=CC1=O", "values": [
      {"measurement": "o-quinone more stable when tautomerized to the QM by", "setting": "[3]", "result": 3.8, "unit": "kcal/mol"}
    ]},
    {"smiles": "C[C@]12CC[C@@H]3c4ccc(O)cc4CC[C@H]3[C@@H]1CC[C@@H]2O", "note": "[E2, 17β-estradiol]", "values": [
      {"measurement": "induction of renal tumors / carcinogenicity", "setting": "hamster kidney", "result": "Malignant renal tumors are induced"}
    ]},
    {"smiles": "C[C@]12CC[C@@H]3c4ccc(O)c(O)c4CC[C@H]3[C@@H]1CC[C@@H]2O", "note": "[4-OHE2, 4-hydroxyestradiol]", "values": [
      {"measurement": "formation of depurinating E1(E2)-1-(α,β)-N7Gua adducts", "setting": "DNA; in vitro, 3,4-quinones or enzymically-activated 4-OHE1/4-OHE2", "result": "almost exclusively"},
      {"measurement": "formation of depurinating E1(E2)-1-(α,β)-N7Gua adducts", "setting": "DNA, rat mammary gland; rat mammary gland", "result": "almost exclusively"}
    ]}
  ]
}
